Experimental data from ChEMBL document CHEMBL1806431, “Imidazo[1,2-a]pyridin-3-amines as potential HIV-1 non-nucleoside reverse transcriptase inhibitors” (Bioorg Med Chem, 2011).

Columns and labels:
[1] = Selectivity index, ratio of CC50 for MAGI-CCR5 cells to IC50 for HIV13B infected in human MAGI-CCR5 cells; format: functional
[2] = molecular target: Human immunodeficiency virus type 1 reverse transcriptase (Human immunodeficiency virus 1, UniProt Q72547); assay: Inhibition of HIV1 reverse transcriptase assessed as residual enzyme activity at 50 uM after 1 hr by ELISA
[3] = Permeability of the compound at 100 uM after 5 hrs by PAMPA
[4] = Cytotoxicity against human MAGI-CCR5 cells after 48 hrs by MTS cell viability assay
[5] = tested on: Human immunodeficiency virus 1; assay: microbe, parasite or virus in culture; format: functional, organism-based; details: Human immunodeficiency virus 1, 3B, MAGI-CCR5, 48 h

SMILES	Ratio CC50/IC50 [1]	IC50 [2]	permeability [3]	CC50 at 48 h [4]	IC50 [5]
Clc1ccc2nc(-c3ccccc3Cl)c(NC3CCCCC3)n2c1	>238	14.5 µM	permeable	> 200 µM	0.84 µM
COCCc1ccc(OCC(O)CNC(C)C)cc1 (stereo not given) [METOPROLOL]	–	–	permeable	–	–
Cc1cccc2nc(-c3ccccc3Cl)c(NC3CCCCC3)n12	108	1.55 µM	–	20.5 µM	0.19 µM
N#Cc1cccc2nc(-c3ccccc3Cl)c(NC3CCCCC3)n12	868	3.47 µM	permeable	156 µM	0.18 µM
Clc1ccccc1-c1nc2ccc3ccccc3n2c1NC1CCCCC1	243	7.52 µM	permeable	146 µM	0.6 µM
Clc1ccccc1-c1nc2ccc(Br)cn2c1NC1CCCCC1	>91	12.2 µM	–	> 200 µM	2.19 µM
Clc1ccccc1-c1nc2ccccn2c1NC1CCCCC1	147	4.4 µM	permeable	60.4 µM	0.41 µM
Clc1ccccc1-c1nc2cccc(Br)n2c1NC1CCCCC1	64	4.62 µM	–	> 200 µM	3.15 µM
N#Cc1ccc2nc(-c3ccccc3Cl)c(NC3CCCCC3)n2c1	>222	6.6 µM	permeable	140 µM	< 0.63 µM
Cc1c(Br)ccc2nc(-c3ccccc3Cl)c(NC3CCCCC3)n12	>3	18.9 µM	–	> 200 µM	73 µM
Cc1ccn2c(NC3CCCCC3)c(-c3ccccc3Cl)nc2c1	–	–	permeable	–	–
Fc1ccc2nc(-c3ccccc3Cl)c(NC3CCCCC3)n2c1	85	11.3 µM	–	160 µM	1.88 µM
Clc1ccccc1-c1nc2cccc(Cl)n2c1NC1CCCCC1	633	3.74 µM	permeable	152 µM	0.24 µM
CC(C)NCC(O)COc1cccc2[nH]ccc12 (stereo not given) [PINDOLOL]	–	–	permeable	–	–
Cc1ccc2nc(-c3ccccc3Cl)c(NC3CCCCC3)n2c1	90	5.39 µM	permeable	57.4 µM	0.64 µM
Cc1ccnc2c1NC(=O)c1cccnc1N2C1CC1 [NEVIRAPINE]	–	–	–	> 10 µM	0.09 µM
